From patent publication US9598365B2, “Method for synthesizing cycloalkanyl[b]indoles, cycloalkanyl[b]benzofurans, cycloalkanyl[b]benzothiophenes, compounds and methods of use” (Trustees of Dartmouth College, priority 2012, dated 2017) come the findings set out here.

Holding throughout (assay type): cell-based
The test system of experiment [1] is hNCI-H716. In words: hNCI-H716 GLP-1 secretion. The note with it: GLP-1 secretion; for activation at 2 µM / activation at 20 µM / Primary SP hNCI (% Stim.): single point; for activation at 2 µM / activation at 20 µM: read-out: Primary SP hNCI (% Stim.); for EC50: concentration response curve, read-out: Primary CRC (EC50, μM) hNCI. An excerpt: Selected compounds of this invention were screened for K-Ras Wnt synthetic lethal, anti-angiogenic activity, Wnt pathway modulatory activity, insulin and GLP-1 secretion modulatory activity, GPR119 receptor agonist activity, mGlu2R antagonist activity, CGRP receptor antagonist activity, Apelin receptor agonist activity and hexokinase 2 inhibitory activity using the PD^2 and TD^2 Screening Panel (Eli Lilly & Company). See Lee, et al. (2011) J. Biomol. Screen. 16:588-602.
(§1) In light of the above results, additional compounds (Table 7) were prepared and phenotypic assays were carried out using hNCI-H716 and mSTC-1 cell lines to monitor GLP-1 secretion (single point (SP) and concentration response curves (CRC)) (Table 8), as well as a secondary assay with pituitary cells (Table 9).

Experiment [2] deals with mSTC-1. Description: mSTC-1 GLP-1 secretion. As to conditions: for EC50: concentration response curve, read-out: Primary CRC (EC50, μM) mSTC; for activation at 2 µM / activation at 20 µM: single point, read-out: Primary SP mSTC (% Stim.). On the procedure: as §1
Experiment [3] deals with mSTC-1. In words: mSTC LDH secretion. The note with it: read-out: Primary CRC (EC50, μM) mSTC LDH. As for the experimental part: as §1
Experiment [4] deals with hNCI-H716. Description: hNCI basal LDH secretion. The note with it: read-out: Primary CRC (EC50, μM) hNCI Basal. On the procedure:
as §1

Molecules are shown by their SMILES. “And” between values parts separate entries of the source, which are not always exact repeats. Identical values can stand only once. Some results are limits rather than exact numbers.

In the case of `CC1(C)c2c([nH]c3ccc(F)cc23)C2C=CC1C2` (stereo not drawn) [Compound 11w], the activation at 2 µM in the experiment on hNCI-H716 [1] (2 μM) was found to be 1.4%. Also, the activation at 20 µM in the experiment with hNCI-H716 [1] (20 μM) worked out at 41.3%. In addition, the EC50 in the experiment on hNCI-H716 [1] was 22.4 µM and 30.3 µM; in the experiment with mSTC-1 [2], 23.6 µM and 22.8 µM.

On to `Cn1c2c(c3ccccc31)[C@@H](c1ccccc1)[C@@H]1C=C[C@H]2C1` [Compound 11a], for which, in the experiment on hNCI-H716 [1] (2 μM), the activation at 2 µM was -2.8%. Also, the activation at 20 µM with hNCI-H716 [1] (20 μM) was -0.5%.

For the compound `Cn1c2c(c3ccccc31)C1(CCCC1)CC2c1ccc2ccccc2c1` (stereo not drawn) [Compound 19x], the activation at 2 µM in the experiment with hNCI-H716 [1] (2 μM) is -3.1%. Besides, the activation at 20 µM with hNCI-H716 [1] (20 μM) was -3.3%.

As to `COc1ccc(C2CC3(CCCC3)c3c2n(C)c2ccccc32)cc1` (stereo not drawn) [Compound 19v], in the experiment with hNCI-H716 [1] (2 μM), the activation at 2 µM was -2%. Also, in the experiment with hNCI-H716 [1] (20 μM), the activation at 20 µM was -2.4%.

In the case of `Cn1c2c(c3ccccc31)C1(CCCC1)CC2c1ccccc1` (stereo not drawn) [Compound 19u], the activation at 2 µM in the experiment on hNCI-H716 [1] (2 μM) is -0.8%. In addition, the activation at 20 µM in the experiment with hNCI-H716 [1] (20 μM) is -3.8%.

`CC1(C)C(=O)C[C@]23CCCC[C@]12Nc1ccccc13` [Compound 20]: the activation at 2 µM in the experiment on hNCI-H716 [1] (2 μM) was -0.2%; in the experiment on mSTC-1 [2] it was -4.1%. The activation at 20 µM in the experiment on hNCI-H716 [1] (20 μM) was -1.1%; with mSTC-1 [2] it was 8.2%.

Turning to `O=C1OC2CCC1[C@]13CCO[C@]21Nc1ccccc13` (stereo partly drawn) [Compound 28], the activation at 2 µM was 1.2% with hNCI-H716 [1] (2 μM) and -2.4% in the experiment on mSTC-1 [2]. The activation at 20 µM in the experiment with hNCI-H716 [1] (20 μM) was determined as 4%; in the experiment on mSTC-1 [2], 4.4%.

`COc1ccc2[nH]c3c(c2c1)C(C)(C)C1C=CC3C1` (stereo not drawn) [Compound 11q]: the figures for the “Primary SP hNCI (% Stim.)” value with hNCI-H716 [1] (2 μM) and with hNCI-H716 [1] (20 μM) were 1.3% and 5.9%, respectively.

Regarding `COc1ccc([C@@H]2c3c(n(C)c4ccccc34)[C@H]3C=C[C@@H]2C3)cc1` (racemic) [Compound 11b], the “Primary SP hNCI (% Stim.)” value was −0.5% in the experiment with hNCI-H716 [1] (2 μM) and −2.4% in the experiment with hNCI-H716 [1] (20 μM).

Consider `CN1c2ccccc2[C@]2(C)C3CCC(C3=O)[C@H]12` (stereo partly drawn) [Compound 23], for which the values for the activation at 2 µM in the experiment with hNCI-H716 [1] (2 μM) and in the experiment on mSTC-1 [2] were 6.4% and 6.9%, respectively. In addition, the activation at 20 µM was -1.1% in the experiment with hNCI-H716 [1] (20 μM) and 71.3% in the experiment on mSTC-1 [2]. Besides, the EC50 in the experiment on hNCI-H716 [1] is above 40 µM; in the experiment with mSTC-1 [2] it was 6.18 µM; in the experiment with mSTC-1 [3], above 40 µM; with hNCI-H716 [4], above 40 µM.

For `Cc1ccc(C2CC3(CCCC3)c3c2n(C)c2ccccc32)cc1` (stereo not drawn) [Compound 19w], the activation at 2 µM in the experiment with hNCI-H716 [1] (2 μM) was -0.8%. For the same compound, the activation at 20 µM with hNCI-H716 [1] (20 μM) is -1.9%.

In the case of `CC1(C)c2c([nH]c3ccc(C(F)(F)F)cc23)C2C=CC1C2` (stereo not drawn) [Compound 11y], in the experiment on hNCI-H716 [1] (2 μM), the activation at 2 µM is -0.4%. Besides, the activation at 20 µM in the experiment on hNCI-H716 [1] (20 μM) amounted to 55.9%. Also, in the experiment with mSTC-1 [2], the EC50 is 10.4 µM and 5.88 µM.

Regarding `CC1(C)C(=O)C[C@]23CCCC[C@]12N(Cc1ccccc1)c1ccccc13` [Compound 25], the figures for the activation at 2 µM with hNCI-H716 [1] (2 μM) and in the experiment on mSTC-1 [2] were 0.6% and 78.5%, respectively. In addition, the activation at 20 µM with hNCI-H716 [1] (20 μM) was -1.1%; in the experiment with mSTC-1 [2] it was 51.1%. In addition, the EC50 with hNCI-H716 [1] is above 40 µM; in the experiment with mSTC-1 [2], 0.2 µM; in the experiment on mSTC-1 [3], above 40 µM; in the experiment on hNCI-H716 [4], above 40 µM.

With `O=C1OC2CCC1[C@]13CCN[C@]21Nc1ccccc13` (stereo partly drawn) [Compound 27], the activation at 2 µM in the experiment on hNCI-H716 [1] (2 μM) was 1%; with mSTC-1 [2], -5.1%. The activation at 20 µM was 0.4% in the experiment with hNCI-H716 [1] (20 μM) and -3.9% with mSTC-1 [2].

Turning to `CC1(C)c2c(n(Cc3ccccc3)c3ccccc23)[C@H]2C=C[C@@H]1C2` [Compound 11o], in the experiment on hNCI-H716 [1] (2 μM), the activation at 2 µM is -0.3%. For the same compound, the activation at 20 µM with hNCI-H716 [1] (20 μM) is -2.1%.

Consider `c1ccc(C2CC3(CCCCC3)c3c2[nH]c2ccccc32)cc1` (stereo not drawn) [Compound 19e], for which the activation at 2 µM was 0% with hNCI-H716 [1] (2 μM) and 78.4% in the experiment on mSTC-1 [2]. In addition, the activation at 20 µM with hNCI-H716 [1] (20 μM) came out at 0%; in the experiment with mSTC-1 [2], 109%.

In the case of `CC1(C)c2c([nH]c3ccccc23)C2C=CC1C2` (stereo not drawn) [Compound 11p], the “Primary SP hNCI (% Stim.)” value is on record as −0.5% in the experiment with hNCI-H716 [1] (2 μM) and 23.3% in the experiment with hNCI-H716 [1] (20 μM).

On to `CC1(C)c2c([nH]c3ccc(O)cc23)C2C=CC1C2` (stereo not drawn) [Compound 11x], for which, in the experiment on hNCI-H716 [1] (2 μM), the activation at 2 µM amounted to 3.4%. In addition, the activation at 20 µM in the experiment with hNCI-H716 [1] (20 μM) is -0.8%. The EC50 in the experiment with hNCI-H716 [1] and in the experiment with mSTC-1 [2] was above 40 µM throughout.

For `Cn1c2c(c3ccccc31)[C@@H](c1ccco1)[C@@H]1C=C[C@H]2C1` [Compound 11d], the activation at 2 µM in the experiment on hNCI-H716 [1] (2 μM) was -2.5%. The activation at 20 µM with hNCI-H716 [1] (20 μM) is -1%.
